Results: patent US20250051347A1, “BIFUNCTIONAL CHIMERIC HETEROCYCLIC COMPOUND AND USE THEREOF AS ANDROGEN RECEPTOR DEGRADER” (Hinova Pharmaceuticals, Inc., priority 2021, published 2025)

Molecular target: T1, androgen receptor (AR) splicing variant AR-v7 (Homo sapiens, UniProt P10275)
T1 construct: The degradation activity of compounds on AR-v7 in 22RV1 cells; host or cells: 22RV1 cells
T1 sequence (P10275 1-644 isoform P10275-3): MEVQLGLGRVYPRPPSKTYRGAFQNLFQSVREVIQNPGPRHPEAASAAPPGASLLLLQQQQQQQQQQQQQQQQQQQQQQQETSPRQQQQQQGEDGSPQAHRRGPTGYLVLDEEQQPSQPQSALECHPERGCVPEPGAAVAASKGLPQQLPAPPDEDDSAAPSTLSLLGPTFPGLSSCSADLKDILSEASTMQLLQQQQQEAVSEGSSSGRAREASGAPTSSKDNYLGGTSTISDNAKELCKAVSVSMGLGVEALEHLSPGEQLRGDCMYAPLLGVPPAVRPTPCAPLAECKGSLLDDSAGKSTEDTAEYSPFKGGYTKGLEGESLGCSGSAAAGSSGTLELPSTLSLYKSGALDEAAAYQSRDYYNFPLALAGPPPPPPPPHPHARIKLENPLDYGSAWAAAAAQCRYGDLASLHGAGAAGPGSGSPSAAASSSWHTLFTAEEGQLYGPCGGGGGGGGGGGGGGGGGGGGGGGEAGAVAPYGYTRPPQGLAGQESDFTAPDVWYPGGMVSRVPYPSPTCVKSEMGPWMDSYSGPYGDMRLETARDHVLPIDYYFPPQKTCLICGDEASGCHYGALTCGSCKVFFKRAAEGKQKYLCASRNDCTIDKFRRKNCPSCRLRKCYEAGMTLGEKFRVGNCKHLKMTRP
Test: Degradation activity on androgen receptor splicing variant AR-v7 in 22RV1 cells (ELISA)
Format: cell-based
Conditions: AR-v7 degradation in 22RV1 cells, 48 h

CC(=O)c1cccc(COc2ccc(C(C)(C)c3ccc(OCCCCCCCCOCCCCNc4ccc5c(c4)C(=O)N(C4CCC(=O)NC4=O)C5=O)cc3)cc2)n1 (centres unmarked) [Example 349, 5-((4-((8-(4-(2-(4-((6-acetylpyridin-2-yl)methoxy)phenyl)isopropan-2-yl)phenoxy)octyl)oxy)tert-butyl)amino)-2-(2,6-dioxopiperidin-3-yl)isoindolin-1,3-dione]
DC50 (numeric values): > 10000 nM

CC(C)(c1ccc(OCc2ccnc(N3CC4(COC4)C3)n2)cc1)c1ccc(OCC2(Nc3ccc4c(c3)C(=O)N(C3CCC(=O)NC3=O)C4=O)CCC2)cc1 (centres unmarked) [Example 498, 5-((1-((4-(2-(4-((2-(2-oxa-6-azaspiro[3.3]heptan-6-yl)pyrimidin-4-yl)methoxy)phenyl)propan-2-yl)phenoxy)methyl)cyclobutyl)amino)-2-(2,6-dioxopiperidin-3-yl)isoindolin-1,3-dione]
DC50 (class symbols): 11 to 100 nM

CC(C)(c1ccc(OCc2nc(N3CC4(COC4)C3)ncc2Cl)cc1)c1ccc(O[C@H]2C[C@@H](Nc3ccc4c(c3)C(=O)N(C3CCC(=O)NC3=O)C4=O)C2)cc1 (some centres unmarked) [Example 201, 5-((1s,3s)-3-(4-(2-(4-((5-chloro-2-(2-oxa-6-azaspiro[3.3]heptan-6-yl)pyrimidin-4-methoxy)phenyl)propan-2-yl)phenoxy)cyclobutyl)amino)-2-(2,6-dioxopiperidin-3-yl)isoindolin-1,3-dione]
DC50 (class symbols): 11 to 100 nM

CC1CN(c2nccc(COc3ccc(C(C)(C)c4ccc(OCCCCCCCCOCCCCNc5ccc6c(c5)C(=O)N(C5CCC(=O)NC5=O)C6=O)cc4)cc3)n2)C1 (centres unmarked) [Example 63]
DC50 (class symbols): 1000 to 5000 nM

CC(C)(c1ccc(Oc2ccc(N3CC4(COC4)C3)nn2)cc1)c1ccc(O[C@H]2C[C@@H](Nc3ccc4c(c3)C(=O)N(C3CCC(=O)NC3=O)C4=O)C2)cc1 (some centres unmarked) [Example 317]
DC50 (class symbols): 11 to 100 nM

CC(C)(c1ccc(OCc2ccnc(NS(C)(=O)=O)n2)cc1)c1ccc(OC2CCN(CCCCOCCCCNc3ccc4c(c3)C(=O)N(C3CCC(=O)NC3=O)C4=O)CC2)cc1 (centres unmarked) [Example 36, N-(4-((4-(2-(4-((1-(4-(4-(4-)((2-(2,6-dioxopiperidin-3-yl)-1,3-dioxoisoindolin-5-yl)amino)butoxy)butyl)piperidin-4-yl)oxy)phenyl)propan-2-yl)phenoxy)methyl)pyrimidin-2-yl)methanesulfonamide]
DC50 (numeric values): > 10000 nM

C[C@@H]1CN(c2nccc(COc3ccc(C(C)(C)c4ccc(O[C@H]5C[C@@H](Nc6ccc7c(c6)C(=O)N(C6CCC(=O)NC6=O)C7=O)C5)cc4)cc3)n2)[C@H](C)CN1C (some centres unmarked) [Example 409]
DC50 (class symbols): 11 to 100 nM

CC(C)(c1ccc(OCc2ccnc(NS(C)(=O)=O)n2)cc1)c1ccc(OC2CCN(CCCCCOCCCCNc3ccc4c(c3)C(=O)N(C3CCC(=O)NC3=O)C4=O)CC2)cc1 (centres unmarked) [Example 15]
DC50 (numeric values): > 10000 nM

CC(C)(c1ccc(OCc2ccnc(N3CCC4(CCNC4)CC3)n2)cc1)c1ccc(O[C@H]2C[C@@H](Nc3ccc4c(c3)C(=O)N(C3CCC(=O)NC3=O)C4=O)C2)cc1 (some centres unmarked) [Example 500, 5-((1s,3s)-3-(4-(2-(4-(4-((2-(2,8-diazaspiro[4.5]decan-8-yl)pyrimidin-4-yl)methoxy)phenyl)propan-2-yl)phenoxy)cyclobutyl)amino)-2-(2,6-dioxopyridin-3-yl)isoindolin-1,3-dione]
DC50 (class symbols): 11 to 100 nM

CC(C)(c1ccc(OCCCNc2ccc3c(c2)C(=O)N(C2CCC(=O)NC2=O)C3=O)cc1)c1ccc(OCc2ccnc(-n3cccn3)n2)cc1 (centres unmarked) [Example 387, 5-((3-(4-(2-(4-((2-(1H-pyrazol-1-yl)pyrimidin-4-yl)methoxy)phenyl)propan-2-yl)phenoxy)propyl)amino)-2-(2,6-dioxopiperidin-3-yl)isoindol-1,3-dione]
DC50 (class symbols): 11 to 100 nM

CC(C)(c1ccc(OCCCN2CCN(CC3CCN(CCCNc4ccc5c(c4)C(=O)N(C4CCC(=O)NC4=O)C5=O)CC3)CC2)cc1)c1ccc(OCc2ccnc(NS(C)(=O)=O)n2)cc1 (centres unmarked) [Example 29, N-(4-((4-(2-(4-(3-(4-((1-(3-((2-(2,6-dioxopiperidin-3-yl)-1,3-dioxoisoindolin-5-yl)amino)propyl)piperidin-4-yl)methyl)piperazin-1-yl)propoxy)phenyl)propan-2-yl)phenoxy)methyl)pyrimidin-2-yl)methanesulfonamide]
DC50 (numeric values): 6330 nM

CC(C)(c1ccc(OCCCOCCCNc2ccc3c(c2)C(=O)N(C2CCC(=O)NC2=O)C3=O)cc1)c1ccc(OCc2ccnc(NS(C)(=O)=O)n2)cc1 (centres unmarked) [Example 18]
DC50 (numeric values): > 10000 nM

CC(C)(c1ccc(OCc2cccc(C(=O)C3CC3)n2)cc1)c1ccc(O[C@H]2C[C@H](Nc3ccc4c(c3)C(=O)N(C3CCC(=O)NC3=O)C4=O)C2)cc1 (stereo partly drawn) [Example 117, 5-(((trans)-3-(4-(2-(4-((6-(cyclopropanecarbonyl)pyridin-2-yl)methoxy)phenyl)propan-2-yl)phenoxy)cyclobutyl)amino)-2-(2,6-dioxopiperidin-3-yl)isoindolin-1,3-dione]
DC50 (class symbols): 11 to 100 nM

CC(C)(c1ccc(OCc2ccnc(NC#N)n2)cc1)c1ccc(O[C@H]2C[C@H](Nc3ccc4c(c3)C(=O)N(C3CCC(=O)NC3=O)C4=O)C2)cc1 (some centres unmarked) [Example 245, N-(4-((4-(2-(4-((1s,3s)-3-((2-(2,6-dioxopiperidin-3-yl)-1,3-dioxoisoindolin-5-yl)amino)cyclobutyloxy)phenyl)propan-2-yl)phenoxy)methyl)pyrimidin-2-yl)cyanamide]
DC50 (class symbols): 101 to 1000 nM

CC(=O)c1nccc(COc2ccc(C(C)(C)c3ccc(N4CCC5(CC4)CN(c4ccc6c(c4)C(=O)N(C4CCC(=O)NC4=O)C6=O)C5)cc3)cc2)n1 (centres unmarked) [Example 305]
DC50 (class symbols): 1000 to 5000 nM

CC(C)(c1ccc(OCc2ccnc(NS(C)(=O)=O)n2)cc1)c1ccc(OC2CCN(c3cccc4c3C(=O)N(C3CCC(=O)NC3=O)C4=O)CC2)cc1 (centres unmarked) [Example 35, N-(4-((4-(2-(4-((1-(2-(2,6-dioxopiperidin-3-yl)-1,3-dioxoisoindolin-4-yl)piperidin-4-yl)oxy)phenyl)propan-2-yl)phenoxy)methyl)pyrimidin-2-yl)methanesulfonamide]
DC50 (numeric values): > 10000 nM

CC(C)(c1ccc(OCc2nc(N3CC4(COC4)C3)ncc2Cl)cc1)c1ccc(O[C@H]2C[C@H](Nc3ccc4c(c3)C(=O)N(C3CCC(=O)NC3=O)C4=O)C2)cc1 (some centres unmarked) [Example 202, 5-((1r,3r)-3-(4-(2-(4-((5-chloro-2-(2-oxa-6-azaspiro[3.3]heptan-6-yl)pyrimidin-4-methoxy)phenyl)propan-2-yl)phenoxy)cyclobutyl)amino)-2-(2,6-dioxopiperidin-3-yl)isoindolin-1,3-dione]
DC50 (class symbols): 11 to 100 nM

CC1(C)CN(c2nccc(COc3ccc(C(C)(C)c4ccc(O[C@H]5C[C@@H](Nc6ccc7c(c6)C(=O)N(C6CCC(=O)NC6=O)C7=O)C5)cc4)cc3)n2)CCN1 (some centres unmarked) [Example 458, 5-(((1s,3s)-3-(4-(2-(4-((2-(3,3-dimethylpiperazin-1-yl)pyrimidin-4-yl)methoxy)phenyl)propan-2-yl)phenoxy)cyclobutyl)amino)-2-(2,6-dioxopiperidin-3-yl)isoindolin-1,3-dione]
DC50 (class symbols): 11 to 100 nM

CN1CCC2(CCN(c3nccc(COc4ccc(C(C)(C)c5ccc(OC6CC(Nc7ccc8c(c7)C(=O)N(C7CCC(=O)NC7=O)C8=O)C6)cc5)cc4)n3)C2)C1 (centres unmarked) [Example 79, 2-(2,6-dioxopiperidin-3-yl)-5-((3-(4-(2-(4-((2-(7-methyl-2,7-diazaspiro[4.4]nonan-2-yl)pyrimidin-4-yl)methoxy)phenyl)propan-2-yl)phenoxy)cyclobutyl)amino)isoindolin-1,3-dione]
DC50 (class symbols): 11 to 100 nM

Cc1nc(-c2ncc(Oc3ccc(C(C)(C)c4ccc(O[C@H]5C[C@H](Nc6ccc7c(c6)C(=O)N(C6CCC(=O)NC6=O)C7=O)C5)cc4)cc3)cc2F)no1 (some centres unmarked) [Example 511]
DC50 (class symbols): 11 to 100 nM
